Data: patent US9434822B2, “Block copolymer, micelle preparation, and anticancer agent containing the same as active ingredient” (Nippon Kayaku Kabushiki Kaisha, priority 2004, dated 2016)

What was measured:
[1] = system: Mouse colon cancer Colon 26 cells; assay: In vivo antitumor effect on Colon 26; details: i.v. 3 times at 4-day intervals, Day 11 after administration
Description: Mouse colon cancer Colon 26 cells were transplanted subcutaneously in the back of female CDF1 mouse, and after the volume of the tumor reached about 100 mm^3, the micelle preparation of Example 4, or paclitaxel alone as the control drug, was administered via a mouse caudal vein into the mouse 3 times at 4-day intervals, to examine the effect thereof on advanced cancer. The micelle preparation had been diluted with 5% glucose solution to form a solution containing paclitaxel at a concentration of 3 mg/mL. Paclitaxel for use as the sole regimen was dissolved in ethanol and mixed with an equal volume of Cremophor (manufactured by Sigma) to prepare a solution containing paclitaxel at a concentration of 30 mg/mL, and the resulting preparation was diluted with physiological saline to 3 mg/mL just before administration. The antitumor effect of each drug was judged in percentage (T/C %) of the average tumor volume of the group which was given the drug on Day 11 after administration, relative to the average tumor volume of the group which was not given the drug. A lower numerical value is indicative of higher effect.

[2] = Paclitaxel levels in mouse plasma; format: in vivo; details: female, intravenous, 50 mg/kg i.v., Colon 26-bearing CDF1 mice
Description: (§1) Each drug was prepared according to the same method as in Test Example 2 (in vivo antitumor effect on Colon 26). A micelle preparation containing paclitaxel, or paclitaxel alone, each at a dose level of 50 mg/kg, was administered via a mouse caudal vein into female CDF1 mouse transplanted with mouse colon cancer Colon 26 in the back, and after a predetermined time, whole blood was collected through an armpit artery. 0.01 mL of plasma obtained by centrifugation was deproteinized (3 times) with 0.2 mL of water and 1 mL of acetonitrile and then subjected to liquid/liquid extraction by adding 2 mL of t-butyl methyl ether. The organic layer was recovered, evaporated into dryness, dissolved in 0.4 mL of dissolving liquid for HPLC, and measured for its paclitaxel concentration by HPLC. Separately, the tumor was homogenized with 0.5% acetic acid to prepare 1% tumor homogenate, and 0.1 mL of 1% tumor homogenate was deproteinized (3 times) with 0.1 mL of water and 1 mL of acetonitrile and subjected to liquid/liquid extraction by adding 2 mL of t-butyl methyl ether. The organic layer was concentrated and dissolved in 0.4 mL of dissolving liquid for HPLC and measured for its paclitaxel concentration by HPLC.

[3] = Paclitaxel levels in mouse tumor; format: in vivo; details: female, CDF1, mouse, tumor (Colon 26), intravenous, 50 mg/kg i.v., Colon 26 tumor
Description: as §1

female CDF1 mice = assay: Observation of peripheral nerve damage to mice (stretch reflex); format: in vivo, mouse; details: 30 mg/kg in terms of paclitaxel, i.v. for 5 consecutive days, hind limb
Description: The micelle preparation of the present invention, or paclitaxel alone, was administered via a mouse caudal vein to female CDF1 mice for 5 consecutive days, and the stretch reflex of the mouse hind limb was observed as an indicator of the peripheral nerve damage caused by paclitaxel. Each drug was prepared in the same manner as in Test Example 2 (in vivo antitumor effect on Colon 26). The dose was 30 mg/kg in terms of paclitaxel.

Compound: CC(=O)O[C@H]1C(=O)[C@@]2(C)[C@H]([C@H](OC(=O)c3ccccc3)[C@]3(O)C[C@H](OC(=O)[C@H](O)[C@@H](NC(=O)c4ccccc4)c4ccccc4)C(C)=C1C3(C)C)[C@]1(OC(C)=O)CO[C@@H]1C[C@@H]2O [Paclitaxel alone, paclitaxel]
- T/C % (average tumor volume relative to group not given the drug) ([1]; dose 50 mg/kg): 81.6%
- T/C % (average tumor volume relative to group not given the drug) ([1]; dose 100 mg/kg): 52.6%
- concentration at 0.083 h ([2]; 0.083 hours): 59300 ng/mL
- concentration at 0.5 h ([2]; 0.5 hours): 31900 ng/mL
- concentration at 2 h ([2]; 2 hours): 14800 ng/mL
- concentration at 6 h ([2]; 6 hours): 710 ng/mL
- concentration at 0.083 h ([3]; 0.083 hours): 7370 ng/mL
- concentration at 0.5 h ([3]; 0.5 hours): 10000 ng/mL
- concentration at 2 h ([3]; 2 hours): 12500 ng/mL
- concentration at 6 h ([3]; 6 hours): 5790 ng/mL
- concentration at 24 h ([3]; 24 hours): 1250 ng/mL
- Mice with loss of stretch reflex (female CDF1 mice): 3/3
- Mice with loss of stretch reflex (female CDF1 mice; listed as paclitaxel alone): recognized to lose stretch reflex in every mouse
